Source: ChEMBL document CHEMBL1142187, “In vitro and in vivo activities of Chios mastic gum extracts and constituents against Helicobacter pylori” (2007)
Converted amounts (≈) assume the structure as drawn.

Test system: Helicobacter pylori
Test: Antibacterial activity against Helicobacter pylori after 48 hrs
Format: functional

Row | Compound | MBC [µg/mL]
1 | C/C(=C/CC[C@H](C)C1CC[C@]2(C)C3=CCC4C(C)(C)[C@@H](O)CC[C@]4(C)C3CC[C@@]12C)C(=O)O (stereo partly specified) | 220 (≈ 482 µM)
2 | C/C(=C/CC[C@H](C)C1CC[C@]2(C)C3=CCC4C(C)(C)C(=O)CC[C@]4(C)C3CC[C@@]12C)C(=O)O (stereo partly specified) | 350 (≈ 770 µM)
3 | C/C(=C/CC[C@H](C)C1CC[C@]2(C)C3=C(CC[C@@]12C)[C@@]1(C)CC[C@H](O)C(C)(C)C1CC3)C(=O)O (stereo partly specified) | 202 (≈ 442 µM)
4 | CC1(C)CC[C@]2(C(=O)O)CC[C@]3(C)C(=CC[C@@H]4[C@@]5(C)CCC(=O)C(C)(C)[C@@H]5CC[C@]43C)[C@@H]2C1 [OLEANONIC ACID] | 292 (≈ 642 µM)
5 | CC1(C)C=C2[C@H]3CC[C@@H]4[C@@]5(C)CCC(=O)C(C)(C)[C@@H]5CC[C@@]4(C)[C@]3(C)CC[C@@]2(C(=O)O)CC1 [MORONIC ACID] | 310 (≈ 682 µM)
6 | C/C(=C/CC[C@H](C)C1CC[C@]2(C)C3=C(CC[C@@]12C)[C@@]1(C)CCC(=O)C(C)(C)C1CC3)C(=O)O (stereo partly specified) | 333 (≈ 732 µM)
